# Test results published in patent publication US9650339B2, “Inhibitors of histone demethylases” (Gilead Sciences, Inc., priority 2013, dated 2017).
# What was measured:
# Assay type in all cases: cell-based
# [1] = tested on: SU DHL6; experiment: Cell proliferation assay SU DHL6; conditions: Homo sapiens, SU-DHL-6; SU DHL6, B cell lymphoma; method of Example 5
# Procedure: (§1) MCF7 cells were seeded in multi well plates at a density optimized to give approximately 90% confluent cells at the time of harvest. Cells were incubated for 24 hours before addition of compound. Compounds were diluted in complete medium and added to the plates in duplicates. The final concentration of DMSO was maximum 0.5%. Complete medium used was DMEM with GlutaMAX containing 10% FBS and pen/strep.
# (§2) 120 hours after addition of compounds, the plates were harvested and analyzed by ATPlite 1 Step (Perkin Elmer, cat no 6016739) according to the manufactures recommendation.
# (§3) The assays were performed by the method of Example 5 by seeding the relevant cell line at a density optimized to give approximately 90% confluent cells at the time of harvest.
# [2] = tested on: K562; experiment: Cell proliferation assay K562; conditions: Homo sapiens; K562, Chronic myelogenous leukemia; method of Example 5
# Procedure: as §1, §2, §3
# [3] = tested on: Jurkat Clone E6-1; experiment: Cell proliferation assay Jurkat Clone E6-1; conditions: Homo sapiens; Jurkat Clone E6-1, Acute T cell lymphoma; method of Example 5
# Procedure: as §1, §2, §3
# [4] = tested on: MM1S; experiment: Cell proliferation assay MM1S; conditions: Homo sapiens, MM1.S, Myeloma, method of Example 5
# Procedure: as §1, §2, §3
# [5] = tested on: HCC1954; experiment: Cell proliferation assay HCC1954; conditions: Homo sapiens; HCC1954, Breast dutal carcinoma; method of Example 5
# Procedure: as §1, §2, §3
# [6] = tested on: SK-MEL-28; experiment: Cell proliferation assay SK-MEL-28; conditions: Homo sapiens; SK-MEL-28, Melanoma; method of Example 5
# Procedure: as §1, §2, §3
# [7] = tested on: A375; experiment: Cell proliferation assay A375; conditions: Homo sapiens, A-375; A375, Melanoma; method of Example 5
# Procedure: as §1, §2, §3
# [8] = tested on: U266; experiment: Cell proliferation assay U266; conditions: Homo sapiens, U-266; U266, Myeloma; method of Example 5
# Procedure: as §1, §2, §3
# [9] = tested on: SK MM2; experiment: Cell proliferation assay SK MM2; conditions: Homo sapiens, SK-MM-2; SK MM2, Plasma cell leukemia; method of Example 5
# Procedure: as §1, §2, §3
# [10] = tested on: MOLP8; experiment: Cell proliferation assay MOLP8; conditions: Homo sapiens, MOLP-8; MOLP8, Myeloma; method of Example 5
# Procedure: as §1, §2, §3
smiles,measurement,setting,value
"CCN(CCN(C)C)C(=O)CNCc1cc(CNC(=O)C(F)(F)F)ccn1 [Compound 25, N-[(2-{[({[2-(dimethylamino)ethyl]-(ethyl)carbamoyl}-methyl)amino]methyl}-pyrtdin-4-yl)methyl]-2,2,2-trifluoroacetamide]",EC50,[1],< 250 nM
same,EC50,[2],250 to 2500 nM
same,EC50,[3],> 2500 nM
same,EC50,[4],< 250 nM
same,EC50,[5],> 2500 nM
same,EC50,[6],> 2500 nM
same,EC50,[7],250 to 2500 nM
"CCN(CC)CCCCNCc1cc(/C=N/CCO)ccn1 [Compound 61, 2-[{[2-({[4-(diethylamino)-butyl]amino}-methyl)pyridin-4-yl]methylidene}-amino]ethan-1-ol]",EC50,[8],> 2500 nM
same,EC50,[9],250 to 2500 nM
"CCN(CCN(C)C)C(=O)CNCc1cc(C2OCC(Cc3ccccc3)CN2C(=O)C(F)(F)F)ccn1 (stereo not shown) [Compound 90, 2-[({4-[5-benzyl-3-(trifluoroacetyl)-1,3-oxazinan-2-yl]pyridin-2-yl}methyl)amino]-N-[2-(dimethylamino)-ethyl]-N-ethylacetamide]",EC50,[10],< 250 nM
